Data: patent US10023519B2, “Cyclobutane containing carboxylic acid GPR120 modulators” (BRISTOL-MYERS SQUIBB COMPANY, priority 2014, dated 2018)

Legend:
human GPR120 = human GPR120 (Homo sapiens (Human), UniProt Q5NUL3); assay: GPR120 pERK AlphaScreen SureFire Assay (human); type: cell-based; settings: CHO cells stably transfected with short form of human GPR120
From the text: GPR120 activity was monitored by measuring phosphorylation of ERK (pERK), since G protein receptors are known to activate the ERK signaling cascade either directly and/or through recruitment of arrestin that serves as a scaffold for downstream signaling events.
GPR120 pERK AlphaScreen SureFire Assay
The human and mouse GPR120-mediated intracellular phosphorylated ERK assays were established using CHOA12 cells stably transfected with the short form of human or mouse GPR120 receptor. […] Cells were cryo preserved at a concentration of 2×10^7 cells/mL, in 90% Charcoal/Dextran FBS and 10% DMSO, and frozen in liquid nitrogen at a low passage number.
The flasks were placed in a tissue culture incubator overnight (37° C., 5% CO2). […] The next day, cells were serum starved in 30 μL of F-12 media without any serum or antibiotics for 2 hours at 37° C.
Cells were then stimulated with 50 nL of compound dilutions using ECHO liquid handler for 7 minutes at 37° C.
(§1) The lysis buffer was diluted 5-fold with water before use. […] The SureFire assay reagent mix was prepared by mixing 60 parts Reaction Buffer, 10 parts Activation Buffer, 1 part Donor Beads, 1 part Acceptor Beads (Perkin Elmer Cat. #TGRES10K). 3.5 μL/well of this reagent mix was manually added to the proxiplate with a multichannel pipettor. Plates were spun down at 1000 rpm for 2 minutes, followed by light-protected incubation at room temperature for 2 hours. The plates were read on the Alpha-technology compatible Envision multilabel plate reader using AlphaScreen protocol according to manufacturer's specifications. The agonist effect of compounds was expressed as 100× (average sample−average blank)/(average total−average blank) where sample is the luminescence activity in the presence of test compound, blank is equal to the luminescence activity in the presence of DMSO control and the total is signal induced by 50 μM linolenic acid as reference compound. Activation data for the test compound over a range of concentrations was plotted as percentage activation of the test compound (100%=maximum response). After correcting for background, EC50 values were determined.
The human and mouse GPR120-mediated intracellular phosphorylated ERK assays were also established using CHO-K1 cells stably transfected with the short form of human or mouse GPR120 receptor. […] Cells were cryo preserved at a concentration of 3×10^6 cells/mL, in 70% F-12, 20% Charcoal/Dextran FBS and 10% DMSO, and frozen in liquid nitrogen at a low passage number.
The flasks were placed in a tissue culture incubator overnight (37° C., 5% CO2).
Cells were then stimulated with 40 nL of compound dilutions using ECHO liquid handler for 7 minutes at 37° C.
as §1, with “compound.” for “compound. Activation data for the test compound over a range of concentrations was plotted as percentage activation of the test compound (100%=maximum response). After correcting for background, EC50 values were determined.”
Activation data for the test compound over a range of concentrations was plotted as percentage activation of the test compound (100%=maximum response). After correcting for background, EC50 values were determined.

C57BL/6 mice = assay: Acute Oral Glucose Tolerance Test; type: in vivo, mouse; settings: dosed at 30 mg/kg orally 60 min before glucose challenge (2 g/kg), AUC t=0-120 min compared to vehicle
Description: In Vivo GPR120 Assays 1) Acute Oral Glucose Tolerance Test
C57BL/6 mice were housed individually and fed a standard rodent chow diet. At approximately 11 weeks age, after a 5 h fast, these mice were orally treated with vehicle or test compounds 60 min before a glucose challenge (2 g/kg). Blood glucose levels were determined from tail bleeds taken at −60, 0, 15, 30, 60 and 120 min after the glucose challenge. […] This AUC for compound treatment is compared to vehicle treatment.

Chain of human GPR120 (Q5NUL3 whole entry): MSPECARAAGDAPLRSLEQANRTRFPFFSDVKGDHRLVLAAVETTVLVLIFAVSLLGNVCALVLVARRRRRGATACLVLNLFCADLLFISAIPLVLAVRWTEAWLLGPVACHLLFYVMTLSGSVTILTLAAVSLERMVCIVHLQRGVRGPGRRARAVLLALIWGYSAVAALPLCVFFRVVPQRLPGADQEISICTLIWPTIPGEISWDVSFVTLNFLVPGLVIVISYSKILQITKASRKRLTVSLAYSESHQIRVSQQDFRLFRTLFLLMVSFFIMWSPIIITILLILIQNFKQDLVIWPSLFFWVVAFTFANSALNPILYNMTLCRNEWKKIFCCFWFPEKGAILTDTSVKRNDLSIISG

| SMILES | EC50 (human GPR120) | reduced glucose AUC (C57BL/6 mice) |
| --- | --- | --- |
| O=C(O)CO[C@H]1C[C@@H](c2ccc(-c3cc(Oc4ccccc4)ccc3F)cc2)C1 [Example 1, Cis-2-(-3-(2′-fluoro-5′-phenoxy-[1,1′-biphenyl]-4-yl)cyclobutoxy)acetic acid] | 170 nM | 42% |
| O=C(O)CO[C@H]1C[C@@H](c2ccc(-c3cc(Oc4cccnc4)ccc3F)cc2)C1 [Example 28, Cis-2-(3-(2′-fluoro-5′-(pyridin-3-yloxy)-[1,1′-biphenyl]-4-yl)cyclobutoxy) acetic acid] | 660 nM |  |
| O=C(O)CO[C@H]1C[C@@H](c2ccc(-c3cc(OC(F)(F)F)ccc3Cl)cc2)C1 [Example 8, Cis-2-(3-(2′-chloro-5′-(trifluoromethoxy)-[1,1′-biphenyl]-4-yl)cyclobutoxy)acetic acid] | 900 nM |  |
| CC(C)Oc1ccc(F)c(-c2ccc([C@H]3C[C@@H](CCC(=O)O)C3)cc2)c1 [Example 46, Cis-3-(3-(2′-fluoro-5′-isopropoxy-[1,1′-biphenyl]-4-yl)cyclobutyl)propanoic acid] | 650 nM |  |
